Experimental findings from ChEMBL document CHEMBL4483862, “Open-source discovery of chemical leads for next-generation chemoprotective antimalarials” (2018) are described below.

For this assay, the system named is Plasmodium berghei. Kind of assay: Luciferase/luciferin-expressing antifolate-resistant parasites were used to infect a culture of HepG2 cells that were pre-incubated with compounds. Infected hepatocytes emit light due to the luciferase reaction. Assay results are presented as the percent inhibition of light emission compared to control. […]. It is filed as functional. The settings on record: sporozoite; for IC90: read-out: LUCIFERASE INFECTION ASSAY - IC90.

Setting [1] is: read-out: LUCIFERASE INFECTION ASSAY - IC50.

Each structure is given as a SMILES string. A value given as a limit tells only on which side of the number the result lay.

`CCn1c2ccccc2c2cc(/C=C(/C(=O)c3ccccc3)c3nc4ccccc4[nH]3)ccc21`: the IC90 is above 10 µM. Also, under setting [1], the IC50 worked out at 9.13 µM.
As for `CCOCCCNC(=O)/C(C#N)=C/c1ccc(Cl)c([N+](=O)[O-])c1`, the 90% effect concentration (IC90) is 9.95 µM. In addition, the IC50 under setting [1] is 5.19 µM.
For the molecule `O=[N+]([O-])c1cnc(Sc2nnc(-c3ccco3)n2-c2ccc(OCc3ccccc3)cc2)s1`, the IC90 was above 6.91 µM. Moreover, the IC50 (FFLUC_HILL_SLOPE 16.1, FFLUC_R_SQUARED 0.469, read-out: LUCIFERASE INFECTION ASSAY - IC50) is above 6.91 µM.
Consider `Cc1nc(SCC(=O)N2c3ccccc3Sc3ccccc32)n(CC(C)C)c1C`, for which the IC90 is above 10 µM. Besides, the IC50 under setting [1] was above 10 µM.
On to `CCS(=O)(=O)N1CCC(C(=O)Nc2nnc(-c3ccc(Cl)cc3)o2)(c2ccccc2)CC1`, for which the IC90 is 1.21 µM. Besides, the 50% inhibitory concentration (IC50) (HEPG2TOX_HILL_SLOPE 1.78, 1.25, HEPG2TOX_R_SQUARED 0.428, 0.956, PBLUC_HILL_SLOPE 18.9, PBLUC_R_SQUARED 0.689, read-out: LUCIFERASE INFECTION ASSAY - IC50) was 1.07 µM.
For `COc1cc(OC)c(C2Nc3cc(Cl)c(S(N)(=O)=O)cc3S(=O)(=O)N2)cc1OC` (stereo not drawn), the concentration for an effect of 90% (IC90) is above 10 µM. Besides, the half-inhibitory concentration (IC50) under setting [1] is above 10 µM.
Turning to `Cc1ccc(S(=O)(=O)N2CCC[C@H]2C(=O)Nc2ccc(-c3nc4ccccc4[nH]3)cc2)cc1`, the 90% effect concentration (IC90) was above 10 µM. The 50% inhibitory concentration (IC50) (HEPG2TOX_HILL_SLOPE 1.59, HEPG2TOX_R_SQUARED 0.747, PBLUC_HILL_SLOPE 12.8, PBLUC_R_SQUARED 0.235, read-out: LUCIFERASE INFECTION ASSAY - IC50) came out at 8.44 µM.
Consider `Cc1nc2ccccc2nc1SCC(=O)Nc1ccccc1N1CCOCC1`, for which the IC90 is above 10 µM. The IC50 under setting [1] is above 10 µM.
In the case of `COc1ccc(-[n+]2c(-c3ccc(Br)cc3)cn3c2CCc2ccccc2-3)cc1`, the IC90 is 3.77 µM. Further, the IC50 (HEPG2TOX_HILL_SLOPE 3.09, HEPG2TOX_R_SQUARED 0.93, PBLUC_HILL_SLOPE 14.3, PBLUC_R_SQUARED 0.689, read-out: LUCIFERASE INFECTION ASSAY - IC50) was 3.23 µM.
With `C=CCn1c(C)cc(C2=NN=C(NC(C)(C)C)SC2)c1C`, the IC90 stood at 0.38 µM. In addition, the concentration for half-maximal inhibition (IC50) under setting [1] amounted to 0.366 µM.
As for `CCN(CC)c1ccc(NC(=O)c2cccc(F)c2)cc1`, the IC90 was determined as 6.44 µM. In addition, under “HEPG2TOX_HILL_SLOPE 2.87, HEPG2TOX_R_SQUARED 0.815, PBLUC_HILL_SLOPE 5.54, PBLUC_R_SQUARED 0.522, read-out: LUCIFERASE INFECTION ASSAY - IC50”, the IC50 is 4.33 µM.
In the case of `Cc1ccc(Cl)cc1NC(=S)N/N=C\c1cccc2ccccc12`, the IC90 is 1.85 µM. In addition, under setting [1], the half-inhibitory concentration (IC50) was 0.805 µM.
As to `CCOC(=O)c1c(NC(=O)Cn2ncc(Cl)c(Cl)c2=O)sc(C(=O)NC)c1C`, the IC90 turned out to be 6.18 µM. For the same molecule, the IC50 (HEPG2TOX_HILL_SLOPE 14.3, HEPG2TOX_R_SQUARED 0.883, PBLUC_HILL_SLOPE 2.04, PBLUC_R_SQUARED 0.801, read-out: LUCIFERASE INFECTION ASSAY - IC50) stood at 2.11 µM.
Turning to `O=c1c2ccccc2sc2nc(C3CCCCC3)n(Cc3ccco3)c(=O)c12`, the concentration for an effect of 90% (IC90) was above 8.41 µM. Moreover, the half-maximal inhibitory concentration (IC50) (PBLUC_HILL_SLOPE 3.17, PBLUC_R_SQUARED 0.712, read-out: LUCIFERASE INFECTION ASSAY - IC50) was found to be 4.57 µM.
Turning to `O=C(Cc1csc(COc2ccc(Cl)cc2)n1)Nc1ccccc1O`, the IC90 was above 10 µM. For the setting “PBLUC_HILL_SLOPE 11.8, PBLUC_R_SQUARED 0.113, read-out: LUCIFERASE INFECTION ASSAY - IC50”, the half-maximal inhibitory concentration (IC50) amounted to 9.28 µM.
For `O=C(Nc1ccc(OC(F)(F)F)cc1)c1cc([N+](=O)[O-])c[nH]c1=O`, the 90% effect concentration (IC90) is above 10 µM. Besides, where the note is “PBLUC_HILL_SLOPE 2.36, PBLUC_R_SQUARED 0.402, read-out: LUCIFERASE INFECTION ASSAY - IC50”, the IC50 came to 5.59 µM.
Regarding `Cc1cc(-c2cc(C(=O)Nc3nnc(C(F)(F)F)[nH]3)c3cnn(C(C)C)c3n2)c(C)s1`, the IC90 was above 10 µM. For the same molecule, the IC50 (HEPG2TOX_HILL_SLOPE 1.32, HEPG2TOX_R_SQUARED 0.884, PBLUC_HILL_SLOPE 1.68, PBLUC_R_SQUARED 0.6, read-out: LUCIFERASE INFECTION ASSAY - IC50) came to 3.79 µM.
As to `Cc1cc(C)nc(NNC(=S)NC(=O)C23CC4CC(CC(C4)C2)C3)n1`, the IC90 was 3.62 µM. Further, for the setting “HEPG2TOX_HILL_SLOPE 2.34, HEPG2TOX_R_SQUARED 0.811, PBLUC_HILL_SLOPE 12, PBLUC_R_SQUARED 0.36, read-out: LUCIFERASE INFECTION ASSAY - IC50”, the IC50 came to 3.01 µM.
Take `CCc1ccc(C(NCC(=O)NC(=O)NC)C(C)C)cc1` (stereo not drawn): the 90% effect concentration (IC90) is above 10 µM. For the same molecule, under setting [1], the IC50 was above 10 µM.
Take `CCN(CC)Cc1ccc(CNC(=O)c2oc3ccccc3c2CSc2nnc[nH]2)cc1`: the concentration for an effect of 90% (IC90) was above 10 µM. Further, the IC50 under setting [1] came out at 2.48 µM.
Take `CC(NC(=O)COc1ccc(-c2nnco2)cc1)c1ccc(Cl)cc1Cl` (stereo not drawn): the concentration for an effect of 90% (IC90) is above 10 µM. Besides, under “FFLUC_HILL_SLOPE 0.318, FFLUC_R_SQUARED 0.016, read-out: LUCIFERASE INFECTION ASSAY - IC50”, the IC50 is above 10 µM.
As to `CCOC(=O)c1ccsc1NC(=O)CNc1ccc(Br)cc1`, the IC90 was above 10 µM. For the same molecule, the IC50 (HEPG2TOX_HILL_SLOPE 11.3, HEPG2TOX_R_SQUARED 0.575, read-out: LUCIFERASE INFECTION ASSAY - IC50) is above 10 µM.
In the case of `Cc1cc2ncc(C(=O)Nc3nc4c(s3)CN(Cc3ccccc3)CC4)c(C)n2n1`, the 90% effect concentration (IC90) was above 10 µM. Also, where the note is “PBLUC_HILL_SLOPE 15, PBLUC_R_SQUARED 0.627, read-out: LUCIFERASE INFECTION ASSAY - IC50”, the IC50 turned out to be 9.24 µM.
Regarding `CCOC(=O)c1ccc(S(=O)(=O)N2CCC(N(C)C)CC2)cc1`, the concentration for an effect of 90% (IC90) is above 10 µM. For the same molecule, the IC50 under setting [1] is above 10 µM.
On to `CC/N=c1\scc(-c2cc(C)c(C)cc2C)n1/N=C/c1c[nH]c2ccccc12`, for which the concentration for an effect of 90% (IC90) is 6.13 µM. Further, for the setting “PBLUC_HILL_SLOPE 4.53, PBLUC_R_SQUARED 0.847, read-out: LUCIFERASE INFECTION ASSAY - IC50”, the IC50 was 3.77 µM.
Consider `CC(C)c1ccc(NC(=O)Nc2ccc3nc(-c4ccco4)nn3c2)cc1`, for which the 90% effect concentration (IC90) is above 10 µM. The concentration for half-maximal inhibition (IC50) under setting [1] was above 10 µM.
As to `CCCCNC(=O)NCCc1ccc2c(c1)OCCO2`, the concentration for an effect of 90% (IC90) was above 10 µM. Further, the IC50 under setting [1] was above 10 µM.
For the molecule `NS(=O)(=O)c1ccc(CCNc2nn3c(-c4ccc(F)c(Cl)c4)cnc3s2)cc1`, the IC90 was above 7.3 µM. Where the note is “FFLUC_HILL_SLOPE 96, FFLUC_R_SQUARED 0.344, HEPG2TOX_HILL_SLOPE 2.59, HEPG2TOX_R_SQUARED 0.44, read-out: LUCIFERASE INFECTION ASSAY - IC50”, the IC50 is above 7.3 µM.
On to `O=C(COC(=O)Cc1ccsc1)Nc1cc(Cl)ccc1-n1cncn1`, for which the concentration for an effect of 90% (IC90) is above 10 µM. Also, the concentration for half-maximal inhibition (IC50) under setting [1] was above 10 µM.
As to `CC(C)c1cccc(-c2ccc3nnc(-c4cccc(Cl)c4)n3c2)c1`, the IC90 is above 10 µM. Also, the IC50 (PBLUC_HILL_SLOPE 4.48, PBLUC_R_SQUARED 0.207, read-out: LUCIFERASE INFECTION ASSAY - IC50) amounted to 6.48 µM.
As for `Cc1nc2c(C(N)=O)ncn2c(C)c1CCC(=O)Nc1ccc2oc3ccccc3c2c1`, the IC90 was determined as 9.76 µM. Further, the half-inhibitory concentration (IC50) (PBLUC_HILL_SLOPE 15.8, PBLUC_R_SQUARED 0.091, read-out: LUCIFERASE INFECTION ASSAY - IC50) came to 9.25 µM.
`O=C(NC1CC1)c1ccc(CN(Cc2ccco2)Cc2nc(-c3ccc(F)cc3)no2)cc1`: the IC90 came out at 0.482 µM. Further, for the setting “PBLUC_HILL_SLOPE 9.42, PBLUC_R_SQUARED 0.908, read-out: LUCIFERASE INFECTION ASSAY - IC50”, the half-maximal inhibitory concentration (IC50) came to 0.382 µM.
For the molecule `CC(=O)n1ncc(Sc2ccc(Cl)cc2)c1-c1ccc(Cl)cc1`, the 90% effect concentration (IC90) was above 9.08 µM. For the same molecule, the IC50 (FFLUC_HILL_SLOPE 25.1, FFLUC_R_SQUARED 0.0752, read-out: LUCIFERASE INFECTION ASSAY - IC50) is above 9.08 µM.
In the case of `CC(Nc1ncnc2sccc12)c1ccc(-n2cncn2)cc1` (stereo not drawn), the 90% effect concentration (IC90) was above 10 µM. The IC50 (HEPG2TOX_HILL_SLOPE 0.68, HEPG2TOX_R_SQUARED 0.808, PBLUC_HILL_SLOPE 0.888, PBLUC_R_SQUARED 0.682, read-out: LUCIFERASE INFECTION ASSAY - IC50) came to 1.95 µM.
`CC(=O)OCc1ccccc1Sc1ccccc1C(=O)Nc1ccccc1`: the IC90 is above 8.74 µM. Moreover, where the note is “FFLUC_HILL_SLOPE 9.22, FFLUC_R_SQUARED 0.715, read-out: LUCIFERASE INFECTION ASSAY - IC50”, the IC50 is above 8.74 µM.
Regarding `Clc1cc2c(c3ncccc13)OCN(Cc1ccco1)C2`, the IC90 was 1.44 µM. Besides, the concentration for half-maximal inhibition (IC50) (FFLUC_HILL_SLOPE 3.15, FFLUC_R_SQUARED 0.751, HEPG2TOX_HILL_SLOPE 1.67, HEPG2TOX_R_SQUARED 0.873, PBLUC_HILL_SLOPE 9.79, PBLUC_R_SQUARED 0.762, read-out: LUCIFERASE INFECTION ASSAY - IC50) stood at 1.15 µM.
As to `COc1cccc(NC(=O)Nc2ccc(N3CCN(c4ncccc4C(F)(F)F)CC3)nc2)c1`, the IC90 is above 6.98 µM. In addition, the concentration for half-maximal inhibition (IC50) (PBLUC_HILL_SLOPE 3.4, PBLUC_R_SQUARED 0.647, read-out: LUCIFERASE INFECTION ASSAY - IC50) came out at 5.69 µM.
Turning to `CC(=O)c1cccc(-c2cc3c(cn2)nc(NCc2ccccc2F)n3C)c1`, the concentration for an effect of 90% (IC90) was above 10 µM. Moreover, the IC50 (HEPG2TOX_HILL_SLOPE 11.4, HEPG2TOX_R_SQUARED 0.658, PBLUC_HILL_SLOPE 2.4, PBLUC_R_SQUARED 0.114, read-out: LUCIFERASE INFECTION ASSAY - IC50) came out at 6.65 µM.
As to `Cc1cccc(-c2cn3c(-c4cccc(O)c4)cnc3cn2)c1C`, the IC90 is above 10.5 µM. The concentration for half-maximal inhibition (IC50) (PBLUC_HILL_SLOPE 4.97, PBLUC_R_SQUARED 0.533, read-out: LUCIFERASE INFECTION ASSAY - IC50) turned out to be 8.4 µM.

The term IC50 denotes the concentration that inhibits the measured activity by half. As a reminder, the IC90 is the concentration at which the effect reaches the 90% level.
